The values that follow come from patent US7829063B2, “Development of molecular imaging probes for carbonic anhydrase-IX using click chemistry” (Siemens Medical Solutions USA, Inc., priority 2007, dated 2010).

The structures appear in SMILES notation.

One may read the Kd as a measure of binding affinity in units of concentration. A low value points to higher affinity.

The assay has as its target T1, CA-IX (Homo sapiens, UniProt Q16790).
T1 construct: His tag (C); purchased R&D Systems Inc. 2188-CA; host or cells: mouse myeloma cell line NS0
The assay is described as follows: Binding affinity (Kd) determination for CA-IX inhibitors, DNSA fluorescence competition assay, Scatchard plots. Conditions: Table 3. The protocol:
General. […] The human red blood cells were obtained from Research Blood Components, LLC. All absorbance measurements were performed on a SPECTRA MAX M2 plate reader at 25° C. The LC/MS analyses were performed on an Agilent 1100 series LC/MSD (SL) using a 30×2.1 mm Zorbax C8 column with a Phenomenex C18 pre-column. Compound detection was accomplished by electrospray mass spectroscopy in positive selected ion mode (LC/MS-SIM). The elution solvents were acetonitrile and water, contained 0.05% TFA. Nuclear magnetic resonance (NMR) spectra were obtained on a Bruker AMX 300 MHz spectrometer or a Varian 400. 19F NMR spectra were recorded on a Bruker AMX 282.35 MHz or a Varian 400 spectrometer. The mass spectra were recorded on an Agilent 1100 series LC/MSD with electrospray mass spectroscopic detection. Flash column chromatography was performed on Merck silica gel (40-63 μm) using the solvent system indicated. The radiochemical and chemical purities were analyzed by RP-HPLC.
General Procedure of Binding Affinity (Ka) Determination for CA-IX Inhibitors
The assay was based on the observation that the only fluorescence signal detected at 460 nm upon excitation at 290 nm, an absorption […] for DNSA, was that of the DNSA.CA complex. […] The latter were developed for each test compound using mass balance for calculating the concentration of CA bound to DNSA [DNSA.CA], bound to the non-fluorescent sample [CA.Inh] and free CA [CA] in solution. The Kd values were determined from Scatchard plots using the equation below as described by Whitesides et al. [CA.Inh]/[CA]tot.[Inh]=K11^inh−K11^inh{[CA.Inh]+[CA.DNSA]}/([CA]tot)
The terms [CA.DNSA], [CA.Inh], and free CA were calculated using the mass balance based on the known values for the dissociation constant of CA.DNSA and the total concentration of CA in each reaction.
For the compound `NS(=O)(=O)c1nc2ccc(OCc3cn([C@@H](Cc4ccccc4)C(=O)NCC4COc5ccccc5O4)nn3)cc2s1` (stereo partly shown) [DHK2-71], the dissociation constant (Kd) amounted to 2.5 nM.
The compound `NS(=O)(=O)c1nc2ccc(OCc3cn(CC(=O)NC(COCc4cccc(OCCNC(=O)CCC(=O)O)c4)C(=O)O)nn3)cc2s1` (stereo not shown) [DHK3-154] showed a Kd of 25 nM.
For `CC(C)C(C(=O)N[C@@H](Cc1ccc(OC(CO)CF)cc1)C(=O)O)n1cc(COc2ccc3nc(S(N)(=O)=O)sc3c2)nn1` (single isomer, unassigned) [GGC121B], the equilibrium dissociation constant (Kd) worked out at 13 nM.
With `COC(=O)[C@H](Cc1ccc(C(F)(F)F)cc1)NC(=O)[C@H](C(C)C)n1cc(COc2ccc3nc(S(N)(=O)=O)sc3c2)nn1` [BW-96, (S)-methyl 2-((S)-3-methyl-2-(4-((2-sulfamoylbenzo[d]thiazol-6-yloxy)methyl)-1H-1,2,3-triazol-1-yl)butanamido)-3-(4-(trifluoromethyl)phenyl) propanoate], the dissociation constant (Kd) was 1.7 nM.
Under `NS(=O)(=O)c1nc2ccc(OCc3cn([C@@H](Cc4ccccc4)C(=O)N4CCC(C(=O)O)CC4)nn3)cc2s1` [DHK2-94] stands 10 nM.
The compound `CC(C)C(C(=O)N[C@@H](Cc1ccc(OC(CO)CF)cc1)C(=O)O)n1cc(COc2ccc3nc(S(N)(=O)=O)sc3c2)nn1` (single isomer, unassigned) [GGC121A] yielded a Kd of 11 nM.
As for `CC(C)C(C(=O)NC(COCc1cccc(OCCO)c1)C(=O)O)n1cc(COc2ccc3nc(S(N)(=O)=O)sc3c2)nn1` (single isomer, unassigned) [VM3-165A], binding was put at a Kd of 5 nM.
In turn, `CC(C)[C@@H](C(=O)N[C@@H](Cc1ccc(OCCF)cc1)C(=O)O)n1cc(COc2ccc3nc(S(N)(=O)=O)sc3c2)nn1` [VM4037a, (S)-3-(4-(2-fluoroethoxy)phenyl)-2-((S)-3-methyl-2-(4-((2-sulfamoylbenzo[d]thiazol-6-yloxy)methyl)-1H-1,2,3-triazol-1-yl)butanamido) propanoic acid] showed a Kd of 1.3 nM.
Take `NS(=O)(=O)c1nc2ccc(OCc3cn(C(Cc4ccc(F)cc4)C(=O)NC(COCc4cccc(OCCO)c4)C(=O)O)nn3)cc2s1` (single isomer, unassigned) [VM3-167A]: the dissociation constant (Kd) was 5 nM. Compared with the last compound, the Kd is about 3.8-fold higher.
`NS(=O)(=O)c1nc2ccc(OCc3cn([C@@H](Cc4ccc(OCCF)cc4)C(=O)O)nn3)cc2s1` [BD2-09, (S)-3-(4-(2-fluoroethoxy)phenyl)-2-(4-((2-sulfamoylbenzo[d]thiazol-6-yloxy)methyl)-1H-1,2,3-triazol-1-yl)propanoic acid] had a Kd of 17 nM. This Kd is about 3.4-fold higher than that of the compound before.
`NS(=O)(=O)c1nc2ccc(OCc3cn(CC(=O)N[C@@H](Cc4ccc(OCCF)cc4)C(=O)O)nn3)cc2s1` [UG3150, (S)-3-(4-(2-fluoroethoxy)phenyl)-2-(2-(4-((2-sulfamoylbenzo[d]thiazol-6-yloxy)methyl)-1H-1,2,3-triazol-1-yl)acetamido)propanoic acid] registered a Kd of 3.3 nM. Against the preceding compound, the Kd is about 5.2-fold lower.
The compound `NS(=O)(=O)c1nc2ccc(OCc3cn([C@@H](CCCCNC(=O)CCC(=O)O)C(=O)NCc4ccc(C(F)(F)F)cc4)nn3)cc2s1` [BD2-47, (S)-4-oxo-4-(6-oxo-5-(4-((2-sulfamoylbenzo[d]thiazol-6-yloxy)methyl)-1H-1,2,3-triazol-1-yl)-6-(4-(trifluoromethyl)benzylamino)hexylamino)butanoic acid] had a Kd of 20 nM.
`CC(C)[C@@H](C(=O)N[C@@H](Cc1ccc(C(F)(F)F)cc1)C(=O)O)n1cc(COc2ccc3nc(S(N)(=O)=O)sc3c2)nn1` [DHK2-132]: the affinity, expressed as Kd, was 0.5 nM.
The value for `N#Cc1ccc(C[C@H](CC(=O)[C@H](Cc2ccc(OCCF)cc2)n2cc(COc3ccc4nc(S(N)(=O)=O)sc4c3)nn2)C(=O)O)cc1` [DHK2-187] was 17 nM; that for `CCOC(=O)C1CCN(C(=O)[C@H](Cc2ccccc2)n2cc(COc3ccc4nc(S(N)(=O)=O)sc4c3)nn2)CC1` [DHK2-68] was 3.4 nM; that for `NS(=O)(=O)c1nc2ccc(OCc3cn(CC(=O)N(CC(=O)O)Cc4ccc(C(F)(F)F)cc4)nn3)cc2s1` [BD3-36, 2-(2-(4-((2-sulfamoylbenzo[d]thiazol-6-yloxy)methyl)-1H-1,2,3-triazol-1-yl)-N-(4-(trifluoromethyl)benzyl)acetamido)acetic acid] was 14 nM.
Compound `CC(C)[C@@H](C(=O)N1CCC(C(=O)O)CC1)n1cc(COc2ccc3nc(S(N)(=O)=O)sc3c2)nn1` [DHK2-84] gave a Kd of 10 nM.
The compound `COC(=O)[C@@H](CSCc1cccc(OCCF)c1)NC(=O)[C@H](CCO)n1cc(COc2ccc3nc(S(N)(=O)=O)sc3c2)nn1` [VM2-106, (S)-methyl 3-(3-(2-fluoroethoxy)benzylthio)-2-(S)-4-hydroxy-2-(4-((2-sulfamoylbenzo[d]thiazol-6-yloxy)methyl)-1H-1,2,3-triazol-1-yl)butanamido) propanoate] showed a Kd of 5 nM.
The value for `NS(=O)(=O)c1nc2ccc(OCc3cn(CC(=O)N[C@@H](Cc4ccc(OCC(O)CF)cc4)C(=O)O)nn3)cc2s1` (stereo partly drawn) [VM4041, (S)-3-(4-(3-fluoro-2-hydroxypropoxy)phenyl)-2-(2-(4-((2-sulfamoylbenzo[d]thiazol-6-yloxy)methyl)-1H-1,2,3-triazol-1-yl)acetamido)propanoic acid] was 5 nM; that for `NS(=O)(=O)c1nc2ccc(OCc3cn([C@@H](Cc4ccc(OCC(O)CF)cc4)C(=O)N[C@@H](Cc4ccc(C(F)(F)F)cc4)C(=O)O)nn3)cc2s1` (stereo partly drawn) [DHK2-173, (2S)-2-((2S)-3-(4-(3-fluoro-2-hydroxypropoxy)phenyl)-2-(4-((2-sulfamoylbenzo[d]thiazol-6-yloxy)methyl)-1H-1,2,3-triazol-1-yl)propanamido)-3-(4-(trifluoromethyl)phenyl)propanoic acid] was 2 nM.
Compound `N[C@@H](CO)C(=O)NCCOc1cccc(COC[C@H](NC(=O)Cn2cc(COc3ccc4nc(S(N)(=O)=O)sc4c3)nn2)C(=O)O)c1` [VM3-163, (S)-3-(3-(2-((S)-2-amino-3-hydroxypropanamido)ethoxy)benzyloxy)-2-(2-(4-((2-sulfamoylbenzo[d]thiazol-6-yloxy)methyl)-1H-1,2,3-triazol-1-yl)acetamido)propanoic acid] showed a Kd of 10 nM.
For the compound `Cc1onc(-c2ccccc2)c1CNC(=O)[C@H](Cc1ccccc1)n1cc(COc2ccc3nc(S(N)(=O)=O)sc3c2)nn1` [DHK2-66], the dissociation constant (Kd) came out at 2 nM.
`CC(C)[C@@H](C(=O)NCC1COc2ccccc2O1)n1cc(COc2ccc3nc(S(N)(=O)=O)sc3c2)nn1` (stereo partly shown) [DHK2-44]: the affinity, expressed as Kd, was 5 nM.
`NS(=O)(=O)c1nc2ccc(OCc3cn(CC(=O)N[C@@H](Cc4ccc(OCCO)cc4)C(=O)O)nn3)cc2s1` [VM4009, (S)-3-(4-(2-hydroxyethoxy)phenyl)-2-(2-(4-((2-sulfamoylbenzo[d]thiazol-6-yloxy)methyl)-1H-1,2,3-triazol-1-yl)acetamido)propanoic acid] showed a Kd of 5 nM. This counts as single-digit nanomolar.
Take `NCCOc1cccc(COCC(NC(=O)Cn2cc(COc3ccc4nc(S(N)(=O)=O)sc4c3)nn2)C(=O)O)c1` (stereo not shown) [DHK3-149]: the Kd came to 10 nM.
The value for `COCCOCCOCCOCCC(=O)NCCOc1cccc(CSC[C@@H](NC(=O)Cn2cc(COc3ccc4nc(S(N)(=O)=O)sc4c3)nn2)C(=O)O)c1` [DHK3-48] was 10 nM; that for `N[C@@H](CO)C(=O)NCCCC[C@@H](C(=O)NCc1ccc(C(F)(F)F)cc1)n1cc(COc2ccc3nc(S(N)(=O)=O)sc3c2)nn1` [DHK2-157] was 25 nM; that for `CC(C)[C@H](C(=O)N[C@@H](Cc1ccc(OCCF)cc1)C(=O)O)n1cc(COc2ccc3nc(S(N)(=O)=O)sc3c2)nn1` [VM4037b] was 5 nM.
The compound `NS(=O)(=O)c1nc2cc(OCc3cn(C(CCO)C(=O)NC(CSCc4cccc(OCCF)c4)C(=O)O)nn3)ccc2s1` (single isomer, unassigned) [VM2-107a] showed a Kd of 10 nM.
`NS(=O)(=O)c1nc2ccc(OCc3cn([C@@H](Cc4ccc(OCCF)cc4)C(=O)NCc4ccc(OC(F)(F)F)cc4)nn3)cc2s1` [DHK2-176] displayed a Kd of 5 nM.
Take `NS(=O)(=O)c1nc2ccc(OCc3cn([C@@H](Cc4ccc(OCCF)cc4)C(=O)NC(Cc4cccc(C(F)(F)F)c4)C(=O)O)nn3)cc2s1` (stereo partly shown) [DHK2-181]: the dissociation constant Kd was 2 nM. Compared with the last compound, the Kd is about 2.5-fold lower.
Regarding `COC(=O)C[C@H](NC(=O)[C@H](Cc1ccc(OCCF)cc1)n1cc(COc2ccc3nc(S(N)(=O)=O)sc3c2)nn1)c1ccccc1` [DHK2-128], binding was characterised by a dissociation constant (Kd) of 10 nM.
Turning to `NS(=O)(=O)c1nc2ccc(OCc3cn([C@@H](Cc4ccc(OCCF)cc4)C(=O)N[C@@H](Cc4c[nH]c5ccccc45)C(=O)O)nn3)cc2s1` [DHK2-180], binding was put at a Kd of 14 nM.
As for `NS(=O)(=O)c1nc2cc(OCc3cn(CC(=O)NCCCOCCOCCOCCCNC(=O)c4ccc(C(=O)O)c(-c5c6ccc(=O)cc-6oc6cc(O)ccc56)c4)nn3)ccc2s1` [WZ01101], binding was put at a Kd of 14 nM.
